The values below come from patent US20150141439A1, “PHARMACEUTICAL COMPOSITION FOR THE PREVENTION OR TREATMENT OF BRAIN TUMOR OR TEMODAL RESISTANT GLIOBLASTOMA MULTIFORM COMPRISING AZATHIOPRINE AS AN ACTIVE INGREDIENT” (KOREA RESEARCH INSTITUTE OF CHEMICAL TECHNOLOGY, priority 2012, published 2015).

In series [1] the test system is HCT-116 Human colorectal carcinoma. The series is described as follows: Secondary cytotoxicity test, HCT-116. It is filed as cell-based. As to the method: (§1) Particularly, the cell growth inhibition effect was measured by WST-1 cell proliferation assay [http://www.roche-applied-science.com/PROD_INF/MANUALS/CELL_MAN/apoptosis—087—088.pdf]. The compound of formula 1 was loaded in a 384-well cell culture plate. Three types of glioblastoma multiform cell lines [proneural subtype (559T), mesenchymal subtype (592T), and classical subtype (626T)], normal human astrocytes (NHA), a lung cancer cell line (A549), and a glioblastoma multiform cell line (U87MG) were distributed in the plate at the density of 4.5×10^3 cells/well, and the medium was filled up to make 50 μl per well. At this time, the concentration of the solvent DMSO for the compound of formula 1 was no more than 0.2%. After culturing the cells for 72 hours, 5 mg/ml of WST-1 reagent was added by 5 μl per well, followed by reaction for 3˜4 hours. Then OD450 was measured to investigate the effect of the compound of formula 1 on cell proliferation.
(§2) To investigate the cell growth inhibition effect of the compound of formula 1 of the present invention (azathioprine) in many different cell lines, secondary cytotoxicity test was performed with the cell lines listed in Table 5 by the same manner as described in Example 1.

In series [2] the test system is PC3 Human prostate adenocarcinoma. Put plainly: Secondary cytotoxicity test, PC3. It is filed as cell-based. The note with it: PC-3. Here is the method:
as §1, §2

Series [3] has as its system HepG2 Human hepatocarcinoma. The series is described as follows: Secondary cytotoxicity test, HepG2. In kind it is cell-based. Here is the method:
as §1, §2

Series [4] relates to U2932 Human DLBCL (Diffuse large B-cell lymphoma). The series is described as follows: Secondary cytotoxicity test, U2932. In kind it is cell-based. Here is the method: as §1, §2
Series [5] relates to normal human astrocytes (NHA). The series is described as follows: WST-1 cell proliferation assay, NHA. In kind it is cell-based. As to the method: as §1
(Formazan colour is commonly taken as a measure of viable cells.)

Series [6] deals with Hela Human adenocarcinoma. The series is described as follows: Secondary cytotoxicity test, Hela. It is filed as cell-based. As to the method:
as §1, §2

Series [7] relates to MKN45 Human stomach adenocarcinoma. The series is described as follows: Secondary cytotoxicity test, MKN45. In kind it is cell-based. Particulars: MKN-45. As to the method: as §1, §2
In series [8] the test system is GBM #10 glioblastoma multiform patient originated cells. Put plainly: Neurosphere formation inhibition, GBM #10. Also noted: key: S: strong effect; I: intermediate effect; R: rare effect. In kind it is cell-based, human. The note with it: GBM #10, type D (non-classified), Azathioprine 1 μM, duration 10 day. As to the method:
Particularly, to investigate neurosphere formation, glioblastoma multiform cells were cultured for a certain time and the cells were distributed again in culture vessels, followed by additional culture. Then, the number of newly generated neurospheres was measured. First, the glioblastoma multiform patient originated cells were sub-cultured, which were distributed in a 96-well plate (20, 50, and 200 cells in 50 μl of culture medium/well). […] Then, the compound of formula 1 (azathioprine) and the compound of Comparative Example 1 (Temodal) were added to 50 μl of cell culture medium with the same concentrations as the above once a week, which were then cultured for 7˜23 days. When neurosphere was formed at least 50 μm in the control group not treated with the compound, the number of neurospheres in each well was counted to compare the neurosphere formation before and after the treatment of the compound of formula 1 (azathioprine) and the compound of Comparative Example 1 (Temodal).
The glioblastoma multiform cells used in this experiment were classified into 4 types, which are type A, type B, type C, and type D, according to the gene expression pattern. Methylation of MGMT (O6-me-G methyltransferase), the DNA repair protein, was confirmed in each cell line. […]

In series [9] the test system is glioblastoma multiform cells transplanted in the brain of a mouse. Put plainly: Glioblastoma multiform orthotopic animal model, survival. In kind it is in vivo. As to the method:
Following experiment was performed to investigate the radiosensitizing effect and chemosensitizing effect of the compound of formula 1 (azathioprine) in the glioblastoma multiform orthotopic animal model.
Particularly, to investigate the resistance against Temodal or radiotherapy in glioblastoma multiform, glioblastoma multiform cells were cultured. The cultured cells (2×10^5/5 μl) were transplanted in the brain of a mouse. 17 days later, the administration of Temodal (65 mg/kg, oral-administration) or radiotherapy (2 Gy) began, which continued for 5 days. The average survival period was investigated. […] For the comparison, the survival period of the group treated with “Avastin”, the well-known anticancer agent, is also presented.
Glioblastoma multiform, glioblastoma multiform cells were cultured. The cultured cells (2×10^5/5 μl) were transplanted in the brain of a mouse. 17 days later, the administration of Temodal (65 mg/kg, oral-administration) or radiotherapy (2 Gy) began, which continued for 5 days. Unlike the above experiment, the compound of formula 1 of the present invention (azathioprine) was co-treated to the mouse by oral-administration at the dose of 20 mg/kg every day after 11 days from the glioblastoma multiform transplantation in the mouse brain. Then, the average survival period was investigated.

In the case of `Cn1cnc([N+](=O)[O-])c1Sc1ncnc2nc[nH]c12` [Azathioprine, 6-(1-methyl-4-nitro-1H-imidazol-5-ylthio)-7H-purine], the IC50 (in general, the concentration that gives 50% inhibition) in series [1] was 5.5 µM; in [2], 6.7 µM; in [3] it was more than 10 µM; in series [4], 4.2 µM; in [6], 2.9 µM; in [7], 1.2 µM. Moreover, the inhibition (as a rule, the change of the read-out against control, counted positive when it falls) at 0.032 µM in series [5] (Homo sapiens, Astrocyte, 0.032 μM, 72 hours, read-out: Cell Growth Inhibition (% Inhibition)) is 1.9%. In addition, the inhibition at 0.1 µM in series [5] (Homo sapiens, Astrocyte, 0.1 μM, 72 hours, read-out: Cell Growth Inhibition (% Inhibition)) came to 5.9%. Besides, the inhibition at 0.32 µM in series [5] (Homo sapiens, Astrocyte, 0.32 μM, 72 hours, read-out: Cell Growth Inhibition (% Inhibition)) is 11%. Further, in series [5] (Homo sapiens, Astrocyte, 1.0 μM, 72 hours, read-out: Cell Growth Inhibition (% Inhibition)), the inhibition at 1 µM stood at 8.3%. In addition, in [5] (Homo sapiens, Astrocyte, 3.2 μM, 72 hours, read-out: Cell Growth Inhibition (% Inhibition)), the inhibition at 3.2 µM amounted to 10.5%. In addition, the inhibition at 10 µM in series [5] (Homo sapiens, Astrocyte, 10 μM, 72 hours, read-out: Cell Growth Inhibition (% Inhibition)) is -2.4%. For the same molecule, in series [5] (Homo sapiens, Astrocyte, 72 hours), the GI50 (in general, the concentration giving 50% growth inhibition) is more than 10 µM. In series [5] (WST-1, up to 10 μM), the “toxicity in normal astrocytes” value is “did not cause toxicity”. Besides, the “inhibition of neurosphere formation” value in series [8] is listed as “S”. Also, in [9] (radiotherapy (2 Gy) 5 days from day 17 + azathioprine 20 mg/kg oral every day after day 11, control 28 days), the “Average Survival Period” value was determined as 41 days. Also, the “Survival Period Extension Rate (%)” value in series [9] (radiotherapy (2 Gy) 5 days from day 17 + azathioprine 20 mg/kg oral every day after day 11, vs. control) stood at 44%.
